Tests used:
[1] = test system: RB (DNA, i motif) GCCGCCCAAAACCCCCCG; test: thiazole orange displacement; conditions: K+ 100 mM KCl plus potassium phosphate; BPES buffer, pH 5.5, 25 °C; 1 μM DNA, 1 μM TO; displacement only 1 %
[2] = test system: BAX gene transcription in SH-SY5Y cells; test: Real-time RT-PCR in SH-SY5Y cells, BAX; assay type: cell-based, human
Experimental: SH-SY5Y cells were treated with or without B14, and total RNA was subsequently isolated and purified. Reverse transcription was performed using a cDNA synthesis kit. The relative transcription levels of the genes were evaluated through quantitative real-time PCR using the SYBR Green-based method, as described in the Supplementary Date. Details regarding the primer sequences and the raw data can be found in Table S7 and Table S8.
^a -∆∆Ct = -[(Ct value of genes in treated sample - Ct value of genes in control) - (Ct value of β-actin in treated sample - Ct value of β-actin in control)]. ^b F: The relative expression fold.
Experiment 1: SH-SY5Y cells were treated with different concentration of B14. The Ct values of BAX, VEGF, CMYC and BCL-2 were obtained.
Total RNA was extracted from cells and mice liver tissue using RNAiso Plus (Takara, 9109, Japan). Following sample homogenization, chloroform was added, and the solution was allowed to have phase separation into an upper aqueous layer (containing RNA), an interphase, and a lower organic layer (containing DNA and proteins). RNA was precipitated from the aqueous phase using isopropanol, while DNA was precipitated from the aqueous-organic interphase using ethanol. Complementary DNA (cDNA) was synthesized using the One-Step RT-PCR Kit (Takara, Cat#639503, Japan).
Quantitative real-time polymerase chain reaction (qRT-PCR) was performed using the 2× RealStar SYBR Mixture (GenStar, Cat# A301-10, Guangzhou, China) on a LightCycler 480 II real-time PCR system (Roche, USA). Data were analyzed using the 2^−ΔΔCt method. Actin served as the internal control, and relative mRNA levels were normalized accordingly.

APP/PS1 transgenic mice = test: Elevated plus maze (EPM); assay type: in vivo; conditions: B14 10, 20, 40 mg/kg i.p. every other day
Description: Five months old male APP/PS1 mice, weighing 25–33 g, were purchased from Guangdong Medical Laboratory Animal Center and housed in the Laboratory Animal Center of Sun Yat-sen University (Guangzhou, China) for experimentation. All procedures were approved by the Animal Care and Use Committee of Sun Yat-sen University and complied with legal requirements and national guidelines for the care and maintenance of laboratory animals (Approval No. SYSU-IACUC-2024-002032). The mice were housed in a specific pathogen-free environment with a controlled temperature of 22 ± 1 °C and a 12-h dark/light cycle. The mice were fed with a standard diet, and 30 mice were randomly divided into 6 groups (N = 5). Compound B14 was dissolved in saline and administered at doses of 10, 20, or 40 mg/kg. APP/PS1 male mice were grown until 6 months of age, and then injected intraperitoneally with compound B14 every other day for 60 days. Behavioral experiments were then conducted, and tissue specimens were collected for biochemical analysis.
The spatial memory and learning abilities of the mice were assessed using Morris water maze (MWM), novel object recognition (NOR) and nesting experiments (NBT). The anxiety and depressive behaviors were evaluated through the open field test (OFT) and elevated plus maze (EPM). Detailed experimental procedures are provided in the supplementary information. […]

[3] = test system: BCL-2, C-MYC and VEGF protein expressions in SH-SY5Y cells; test: Western blot in SH-SY5Y cells; assay type: cell-based; conditions: increasing concentration of B14, 24 h
Experimental: Protein samples (25–40 μg) were separated using 10 % SDS-PAGE and subsequently transferred onto PVDF membranes (0.22 μm, Servicebio, Guangzhou, China) via electro transfer. Following blocking with TBST solution (Servicebio, Guangzhou, China) containing 5 % BSA (Solarbio, Beijing, China) for approximately 60 min at room temperature, the membrane was exposed to various primary antibodies overnight at 4 °C on a rotating shaker. Then, the membranes were incubated with HRP-conjugated secondary antibody (Affinity, Changzhou, China) for 2 h. Protein bands were then detected using an ECL kit. The signal intensity of each target protein was quantified using Image J 1.8.0 software (Bio-Rad Laboratories, California, USA).
Primary antibodies for Western blot analysis include BCL-2 (affinity biosciences OH, Cat# AF6139, USA), BAX (affinity biosciences OH, Cat# AF0120, USA), VEGF (affinity biosciences OH, Cat# AF5131, USA), C-MYC (affinity biosciences OH, Cat# AF0358, USA), Caspase9 (affinity biosciences OH, Cat# AF6348, USA), cleaved-Caspase9 (affinity biosciences OH, Cat# AF5240, USA), Caspase3 (affinity biosciences OH, Cat# AF6311, USA), cleaved-Caspase3 (affinity biosciences OH, Cat# AF7022, USA), and Cyto-C (affinity biosciences OH, Cat# AF6139, USA).

HRAS promoter i-motif = test: SPR binding to HRAS promoter i-motif; conditions: MES buffer pH 5.5
Aβ1-42 = molecular target: T1, Aβ1-42 (Homo sapiens, UniProt P05067); test: Congo red binding assay; assay type: biochemical; conditions: 20 μM compound, 72 h
T1 construct: Aβ1-42 was purchased from Gill Biochemicals Ltd (Shanghai, China); purchased Gill Biochemicals Ltd (Shanghai, China)
Experimental: (§1) A total of 30 μM Congo red (Aladdin, Shanghai, China) solution (20 mM potassium phosphate, 50 mM NaCl, pH 7.4) was prepared and filtered with a 0.45 μm filter. The Aβ1-42 solutions (30 μM) were co-incubated with B14 (20 μM), A22 (20 μM), or Curcumin (20 μM) at 37 °C protected from light for 72h. The Aβ1-42 solution was mixed with equal volume of Congo red solution, followed by incubation for 30 min. A spectral region from 400 nm to 650 nm was measured by using a UV–vis spectrophotometer (AoE, China).
as §1, with “red” for “red (Aladdin, Shanghai, China)”, “μM) and” for “μM), A22 (20 μM), or”, “solution and incubated” for “solution, followed by incubation”, “analyzed” for “measured”, “UV-vis” for “UV–vis”

T1 sequence (P05067 672-713 limits assumed): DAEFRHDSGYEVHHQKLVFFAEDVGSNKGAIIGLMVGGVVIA

Q: How did the binding [1] turn out when O=C(CCN1CCOCC1)Nc1ccc2c(c1)c(=O)c1cc(NC(=O)CCN3CCOCC3)ccc1n2-c1ccc2occc2c1 [Compound B14] was run?
A: no

Q: And the “-∆∆Ct, BAX” value ([2]; 6.25 μM B14)?
A: -0.13

Q: And the “F = 2^-∆∆Ct (relative expression fold), BAX” value ([2]; 6.25 μM B14)?
A: 1.09

Q: What about the “-∆∆Ct, BAX” value ([2]; 12.5 μM B14) of the same molecule?
A: 0

Q: And the “F = 2^-∆∆Ct (relative expression fold), BAX” value ([2]; 12.5 μM B14)?
A: 1.00

Q: What about the “-∆∆Ct, BAX” value ([2]; 25 μM B14) of the same molecule?
A: -0.03

Q: And the “F = 2^-∆∆Ct (relative expression fold), BAX” value ([2]; 25 μM B14)?
A: 1.02

Q: And the “number of entries into the open arm and retention time (EPM)” value (APP/PS1 transgenic mice)?
A: significantly increased

Q: And the “BCL-2 translation (Western blot)” value [3]?
A: up-regulate BCL-2 translation in SH-SY5Y cells in a dose-dependent manner

Q: And the “C-MYC and VEGF expression (Western blot)” value [3]?
A: without significant effect on C-MYC and VEGF expression

Q: What about the Kd (HRAS promoter i-motif) of the same molecule?
A: > 50 µM

Q: What about the “absorbance of Congo red in the Aβ1-42 sample” value (Aβ1-42) of the same molecule?
A: significantly reduced

— article PMC11982498 (Redox Biology, 2025)
